{"source": "patent US20190345150A1", "about": "“MICROBIOCIDAL OXADIAZOLE DERIVATIVES” (SYNGENTA PARTICIPATIONS AG, priority 2016, published 2019)", "key": {"[1]": {"tested_on": "Puccinia recondita f. Sp. Tritici", "experiment": "Puccinia recondita f. sp. tritici / wheat / leaf disc preventative (brown rust)", "format": "in vivo", "settings": "foliar, 200 ppm in the applied formulation, wheat leaf segments cv. Kanzler, preventative (inoculated 1 day after application), compared to untreated control, read-out: disease control", "description": "Leaf disks or leaf segments of various plant species are cut from plants grown in a greenhouse. The cut leaf disks or segments are placed in multiwell plates (24-well format) onto water agar. The leaf disks are sprayed with a test solution before (preventative) or after (curative) inoculation. Compounds to be tested are prepared as DMSO solutions (max. 10 mg/ml) which are diluted to the appropriate concentration with 0.025% Tween20 just before spraying. The inoculated leaf disks or segments are incubated under defined conditions (temperature, relative humidity, light, etc.) according to the respective test system. A single evaluation of disease level is carried out 3 to 14 days after inoculation, depending on the pathosystem. Percent disease control relative to the untreated check leaf disks or segments is then calculated. Wheat leaf segments cv. Kanzler were placed on agar in multiwell plates (24-well format) and sprayed with the formulated test compound diluted in water. The leaf disks were inoculated with a spore suspension of the fungus 1 day after application. The inoculated leaf segments were incubated at 19° C. and 75% relative humidity (rh) under a light regime of 12 hours light/12 hours darkness in a climate cabinet and the activity of a compound was assessed as percent disease control compared to untreated when an appropriate level of disease damage appears in untreated check leaf segments (7 to 9 days after application)."}, "[2]": {"tested_on": "Puccinia recondita f. Sp. Tritici", "experiment": "Puccinia recondita f. sp. tritici / wheat / leaf disc curative (brown rust)", "format": "in vivo", "settings": "foliar, 24 h, 200 ppm in the applied formulation, wheat leaf segments cv. Kanzler, curative (applied 1 day after inoculation), compared to untreated control, read-out: disease control", "description": "Leaf disks or leaf segments of various plant species are cut from plants grown in a greenhouse. The cut leaf disks or segments are placed in multiwell plates (24-well format) onto water agar. The leaf disks are sprayed with a test solution before (preventative) or after (curative) inoculation. Compounds to be tested are prepared as DMSO solutions (max. 10 mg/ml) which are diluted to the appropriate concentration with 0.025% Tween20 just before spraying. The inoculated leaf disks or segments are incubated under defined conditions (temperature, relative humidity, light, etc.) according to the respective test system. A single evaluation of disease level is carried out 3 to 14 days after inoculation, depending on the pathosystem. Percent disease control relative to the untreated check leaf disks or segments is then calculated. Wheat leaf segments cv. Kanzler are placed on agar in multiwell plates (24-well format). The leaf segments are then inoculated with a spore suspension of the fungus. Plates were stored in darkness at 19° C. and 75% relative humidity. The formulated test compound diluted in water was applied 1 day after inoculation. The leaf segments were incubated at 19° C. and 75% relative humidity under a light regime of 12 hours light/12 hours darkness in a climate cabinet and the activity of a compound was assessed as percent disease control compared to untreated when an appropriate level of disease damage appears in untreated check leaf segments (6 to 8 days after application)."}, "[3]": {"tested_on": "Phakopsora pachyrhizi", "experiment": "Phakopsora pachyrhizi / soybean / leaf disc preventative (Asian soybean rust)", "format": "in vivo", "settings": "foliar, 200 ppm in the applied formulation, soybean leaf disks, preventative (inoculated 1 day after application), compared to untreated control, read-out: disease control", "description": "Leaf disks or leaf segments of various plant species are cut from plants grown in a greenhouse. The cut leaf disks or segments are placed in multiwell plates (24-well format) onto water agar. The leaf disks are sprayed with a test solution before (preventative) or after (curative) inoculation. Compounds to be tested are prepared as DMSO solutions (max. 10 mg/ml) which are diluted to the appropriate concentration with 0.025% Tween20 just before spraying. The inoculated leaf disks or segments are incubated under defined conditions (temperature, relative humidity, light, etc.) according to the respective test system. A single evaluation of disease level is carried out 3 to 14 days after inoculation, depending on the pathosystem. Percent disease control relative to the untreated check leaf disks or segments is then calculated. Soybean leaf disks are placed on water agar in multiwell plates (24-well format) and sprayed with the formulated test compound diluted in water. One day after application leaf discs are inoculated by spraying a spore suspension on the lower leaf surface. After an incubation period in a climate cabinet of 24-36 hours in darkness at 20° C. and 75% rh leaf disc are kept at 20° C. with 12 h light/day and 75% rh. The activity of a compound is assessed as percent disease control compared to untreated when an appropriate level of disease damage appears in untreated check leaf disks (12 to 14 days after application)."}, "[4]": {"tested_on": "Glomerella laqenarium (Colletotrichum laqenarium)", "experiment": "Glomerella lagenarium liquid culture / cucumber / preventative (anthracnose)", "format": "cell-based", "settings": "20 ppm in the applied formulation, liquid culture in PDB, growth inhibition measured photometrically 3 to 4 days after application, compared to untreated control, read-out: disease control", "description": "Mycelia fragments or conidia suspensions of a fungus prepared either freshly from liquid cultures of the fungus or from cryogenic storage, are directly mixed into nutrient broth. DMSO solutions of the test compound (max. 10 mg/ml) are diluted with 0.025% Tween20 by a factor of 50 and 10 μl of this solution is pipetted into a microtiter plate (96-well format). The nutrient broth containing the fungal spores/mycelia fragments is then added to give an end concentration of the tested compound. The test plates are incubated in the dark at 24° C. and 96% relative humidity. The inhibition of fungal growth is determined photometrically after 2 to 7 days, depending on the pathosystem, and percent antifungal activity relative to the untreated check is calculated. Conidia of the fungus from cryogenic storage are directly mixed into nutrient broth (PDB—potato dextrose broth). After placing a (DMSO) solution of test compound into a microtiter plate (96-well format), the nutrient broth containing the fungal spores is added. The test plates are incubated at 24° C. and the inhibition of growth is measured photometrically 3 to 4 days after application."}}, "data": [{"smiles": "C/C(=N/OCc1ccc(-c2noc(C(F)(F)F)n2)cc1)n1ccnc1", "note": "[Compound 4.2, (Z)-1-imidazol-1-yl-N-[[4-[5-(trifluoromethyl)-1,2,4-oxadiazol-3-yl]phenyl]methoxy]ethanimine]", "values": [{"measurement": "pest or weed control at 200 ppm", "setting": "[1]", "result": "≥ 80", "unit": "%"}, {"measurement": "pest or weed control at 200 ppm", "setting": "[2]", "result": "≥ 80", "unit": "%"}, {"measurement": "pest or weed control at 200 ppm", "setting": "[3]", "result": "≥ 80", "unit": "%"}, {"measurement": "inhibition of growth at 20 ppm", "setting": "[4]", "result": "≥ 80", "unit": "%"}, {"measurement": "melting point", "result": "51 to 53", "unit": "°C"}]}]}
